Laboratory results published in patent US12643910B2, “Substituted pyrazolo[3,4-b]pyridines as ectonucleotide pyrophosphatase/phosphodiesterase 1 (ENPP1) modulators” (SANFORD BURNHAM PREBYS MEDICAL DISCOVERY INSTITUTE, priority 2019, dated 2026).

Tests used:
[1] = molecular target: T1, human ENPP1 (Homo sapiens, UniProt P22413); assay: ENPP1 assay with ATP substrate (Transcreener AMP2/GMP2 TR-FRET); assay type: biochemical; conditions: 1 hour at room temperature
T1 construct: made in house
T1 sequence (P22413 1-925): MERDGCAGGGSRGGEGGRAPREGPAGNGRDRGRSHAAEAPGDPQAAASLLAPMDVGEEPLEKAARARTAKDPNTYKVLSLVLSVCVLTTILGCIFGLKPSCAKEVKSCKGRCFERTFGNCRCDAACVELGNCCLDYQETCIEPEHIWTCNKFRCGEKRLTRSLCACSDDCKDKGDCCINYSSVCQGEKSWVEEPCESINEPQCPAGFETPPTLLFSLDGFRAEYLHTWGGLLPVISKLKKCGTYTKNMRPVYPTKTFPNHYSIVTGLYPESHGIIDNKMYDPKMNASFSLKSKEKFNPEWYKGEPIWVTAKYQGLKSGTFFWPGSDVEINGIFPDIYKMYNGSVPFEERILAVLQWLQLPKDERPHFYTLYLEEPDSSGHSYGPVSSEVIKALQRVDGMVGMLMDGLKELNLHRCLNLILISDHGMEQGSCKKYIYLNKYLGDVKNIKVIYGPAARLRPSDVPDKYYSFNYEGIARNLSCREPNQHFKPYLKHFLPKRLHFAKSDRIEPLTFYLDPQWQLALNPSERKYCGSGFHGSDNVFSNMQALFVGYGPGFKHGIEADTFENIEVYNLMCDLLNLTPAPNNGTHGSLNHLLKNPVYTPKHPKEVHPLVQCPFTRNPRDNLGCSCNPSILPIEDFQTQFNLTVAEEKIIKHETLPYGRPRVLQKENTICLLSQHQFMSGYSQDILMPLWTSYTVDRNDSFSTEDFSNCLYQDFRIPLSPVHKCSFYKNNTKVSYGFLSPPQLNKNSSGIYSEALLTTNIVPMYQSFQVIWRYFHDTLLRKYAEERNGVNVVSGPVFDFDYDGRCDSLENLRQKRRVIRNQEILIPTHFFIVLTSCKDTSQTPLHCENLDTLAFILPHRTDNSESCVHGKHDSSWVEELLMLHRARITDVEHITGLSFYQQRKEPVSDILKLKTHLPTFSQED
How it was run: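 5′-AMP from ATP hydrolysis (300 nM ATP stock added; enzyme added as 8.5 μM stock) detected by competitive TR-FRET. Buffer: 50 mM Tris pH 7.5, 1 mM TCEP, 2 mM MgCl2, 0.005% Tween 20, 1% DMSO. Reaction 1 h at room temperature, EDTA stop. IC50 from 2-parameter variable-slope fit.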

[2] = molecular target: T2, ENPP3 (Homo sapiens, UniProt O14638); assay: ENPP3 Km ATP assay; assay type: biochemical; conditions: ATP at Km
T2 sequence (O14638 1-875): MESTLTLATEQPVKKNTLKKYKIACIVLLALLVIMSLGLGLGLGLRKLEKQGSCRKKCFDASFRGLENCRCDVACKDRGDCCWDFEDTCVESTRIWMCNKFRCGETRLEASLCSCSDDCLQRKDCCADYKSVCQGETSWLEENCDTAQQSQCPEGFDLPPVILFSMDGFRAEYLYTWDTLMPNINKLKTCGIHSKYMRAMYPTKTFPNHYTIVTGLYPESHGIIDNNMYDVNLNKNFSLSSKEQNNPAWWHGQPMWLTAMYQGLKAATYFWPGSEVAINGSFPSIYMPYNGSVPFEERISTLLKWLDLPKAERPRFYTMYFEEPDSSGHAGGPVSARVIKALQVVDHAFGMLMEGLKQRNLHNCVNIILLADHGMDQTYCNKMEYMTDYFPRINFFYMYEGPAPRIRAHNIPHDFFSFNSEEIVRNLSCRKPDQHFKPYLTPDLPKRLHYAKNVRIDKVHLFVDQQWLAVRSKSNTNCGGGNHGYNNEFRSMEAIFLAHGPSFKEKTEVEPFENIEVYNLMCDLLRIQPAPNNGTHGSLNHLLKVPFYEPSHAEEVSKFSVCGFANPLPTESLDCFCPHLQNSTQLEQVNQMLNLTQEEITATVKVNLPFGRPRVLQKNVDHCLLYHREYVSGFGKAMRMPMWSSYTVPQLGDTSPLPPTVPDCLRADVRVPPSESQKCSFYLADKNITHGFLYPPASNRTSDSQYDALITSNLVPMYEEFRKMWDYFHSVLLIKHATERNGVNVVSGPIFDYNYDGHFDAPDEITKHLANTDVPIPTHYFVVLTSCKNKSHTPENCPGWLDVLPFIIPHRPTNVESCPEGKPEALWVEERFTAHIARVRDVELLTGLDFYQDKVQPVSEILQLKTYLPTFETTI

Structure (SMILES) | IC50 [1] | IC50 [2]
Cc1nsc2c(=O)n(Cc3ccc(S(N)(=O)=O)cc3)cnc12 [Example 3.60, 4-((3-Methyl-7-oxoisothiazolo[4,5-d]pyrimidin-6(7H)-yl)methyl)benzenesulfonamide] | 1 to 20 µM | 1 to 20 µM
Cc1csc2c(N3CCC(NCCCc4ccncc4)CC3)nc(-c3ccccc3)nc12 [Example 3.61, 1-(7-Methyl-2-phenylthieno[3,2-d]pyrimidin-4-yl)-N-(3-(pyridin-4-yl)propyl)piperidin-4-amine] | > 20 µM | > 20 µM
